Values after ≈ are worked out from the molar mass of the structure shown.
What was measured:
Type in all cases: functional
Candida albicans = test: Antifungal activity against fluconazole-sensitive Candida albicans SC5314 after 24 hrs by serial dilution method; details: SC5314, 24 h
Candida parapsilosis = test: Antifungal activity against Candida parapsilosis ATCC 22019 after 24 hrs by serial dilution method; details: Lodderomyces parapsilosis, ATCC 22019, 24 h
Cryptococcus neoformans = test: Antifungal activity against Cryptococcus neoformans 32609 after 72 hrs by serial dilution method; details: Cryptococcus neoformans, 32609, 72 h
Nakaseomyces glabratus = test: Antifungal activity against Candida glabrata 537 after 24 hrs by serial dilution method; details: Nakaseomyces glabratus, 537, 24 h
Aspergillus fumigatus = test: Antifungal activity against Aspergillus fumigatus 07544 after 7 days by serial dilution method; details: Aspergillus fumigatus, 07544, 168 h
Trichophyton rubrum = test: Antifungal activity against Trichophyton rubrum Cmccftla after 7 days by serial dilution method; details: 168 h
Nannizzia gypsea = test: Antifungal activity against Microsporum gypseum Cmccfmza after 7 days by serial dilution method; details: 168 h
Candida tropicalis = test: Antifungal activity against Candida tropicalis after 7 days by serial dilution method; details: 168 h
Pichia kudriavzevii = test: Antifungal activity against Candida krusei 0710397 after 7 days by serial dilution method; details: Pichia kudriavzevii, 0710397, 168 h

Row | MIC80 (Candida albicans) | MIC80 (Candida parapsilosis) | MIC80 (Cryptococcus neoformans) | MIC80 (Nakaseomyces glabratus) | MIC80 (Aspergillus fumigatus) | MIC80 (Trichophyton rubrum) | MIC80 (Nannizzia gypsea) | MIC80 (Candida tropicalis) | MIC80 (Pichia kudriavzevii) | Compound
1 | 64 µg/mL (≈ 206 µM) | 64 µg/mL (≈ 206 µM) | 32 µg/mL (≈ 103 µM) | 32 µg/mL (≈ 103 µM) | 64 µg/mL (≈ 206 µM) | 16 µg/mL (≈ 51.5 µM) | 16 µg/mL (≈ 51.5 µM) | – | – | CN1CCc2c(c3cc(Cl)ccc3n2Cc2ccccc2)C1
2 | > 64 µg/mL | 64 µg/mL (≈ 178 µM) | 32 µg/mL (≈ 89.1 µM) | 32 µg/mL (≈ 89.1 µM) | > 64 µg/mL | 32 µg/mL (≈ 89.1 µM) | > 64 µg/mL | – | – | CN1CCc2c(c3cc(Cl)ccc3n2C(=O)c2ccc(Cl)cc2)C1
3 | 2 µg/mL (≈ 4.96 µM) | 4 µg/mL (≈ 9.92 µM) | 4 µg/mL (≈ 9.92 µM) | – | – | 4 µg/mL (≈ 9.92 µM) | 2 µg/mL (≈ 4.96 µM) | 16 µg/mL (≈ 39.7 µM) | 4 µg/mL (≈ 9.92 µM) | Fc1ccc2c(c1)c1c(n2CCCOc2cccc(Br)c2)CCNC1
4 | 8 µg/mL (≈ 23.6 µM) | 4 µg/mL (≈ 11.8 µM) | 8 µg/mL (≈ 23.6 µM) | – | – | 4 µg/mL (≈ 11.8 µM) | 4 µg/mL (≈ 11.8 µM) | 16 µg/mL (≈ 47.3 µM) | 16 µg/mL (≈ 47.3 µM) | Cc1cccc(OCCCn2c3c(c4cc(F)ccc42)CNCC3)c1
5 | 64 µg/mL (≈ 185 µM) | 32 µg/mL (≈ 92.7 µM) | 16 µg/mL (≈ 46.3 µM) | 16 µg/mL (≈ 46.3 µM) | 32 µg/mL (≈ 92.7 µM) | 8 µg/mL (≈ 23.2 µM) | 16 µg/mL (≈ 46.3 µM) | – | – | CN1CCc2c(c3cc(Cl)ccc3n2Cc2cccc(Cl)c2)C1
6 | 4 µg/mL (≈ 11.8 µM) | 16 µg/mL (≈ 47.3 µM) | 4 µg/mL (≈ 11.8 µM) | – | – | 4 µg/mL (≈ 11.8 µM) | 4 µg/mL (≈ 11.8 µM) | 64 µg/mL (≈ 189 µM) | 16 µg/mL (≈ 47.3 µM) | Cc1ccccc1OCCCn1c2c(c3cc(F)ccc31)CNCC2
7 | 8 µg/mL (≈ 23.4 µM) | 16 µg/mL (≈ 46.9 µM) | 32 µg/mL (≈ 93.7 µM) | – | – | 32 µg/mL (≈ 93.7 µM) | 16 µg/mL (≈ 46.9 µM) | 64 µg/mL (≈ 187 µM) | 16 µg/mL (≈ 46.9 µM) | Fc1ccc(NCCCn2c3c(c4cc(F)ccc42)CNCC3)cc1
8 | 8 µg/mL (≈ 21.1 µM) | 64 µg/mL (≈ 169 µM) | 4 µg/mL (≈ 10.6 µM) | – | – | 8 µg/mL (≈ 21.1 µM) | 4 µg/mL (≈ 10.6 µM) | 4 µg/mL (≈ 10.6 µM) | 4 µg/mL (≈ 10.6 µM) | Fc1ccc2c(c1)c1c(n2CCCOc2ccc(F)c(F)c2F)CCNC1
9 | 4 µg/mL (≈ 11.1 µM) | 4 µg/mL (≈ 11.1 µM) | 4 µg/mL (≈ 11.1 µM) | – | – | 8 µg/mL (≈ 22.3 µM) | 4 µg/mL (≈ 11.1 µM) | 4 µg/mL (≈ 11.1 µM) | 4 µg/mL (≈ 11.1 µM) | Fc1ccc(OCCCn2c3c(c4cc(Cl)ccc42)CNCC3)cc1
10 | > 64 µg/mL | 64 µg/mL (≈ 247 µM) | 32 µg/mL (≈ 124 µM) | 64 µg/mL (≈ 247 µM) | > 64 µg/mL | > 64 µg/mL | 32 µg/mL (≈ 124 µM) | – | – | C#CCn1c2c(c3cc(Cl)ccc31)CN(C)CC2
11 | > 64 µg/mL | > 64 µg/mL | 16 µg/mL (≈ 37.8 µM) | > 64 µg/mL | > 64 µg/mL | > 64 µg/mL | 16 µg/mL (≈ 37.8 µM) | – | – | CN1CCc2c(c3cc(Cl)cc(Cl)c3n2CCCOc2ccc(Cl)cc2)C1
12 | > 64 µg/mL | > 64 µg/mL | 64 µg/mL (≈ 151 µM) | 64 µg/mL (≈ 151 µM) | > 64 µg/mL | 64 µg/mL (≈ 151 µM) | 64 µg/mL (≈ 151 µM) | – | – | CN1CCc2c(c3cc(C(F)(F)F)ccc3n2CCCOc2ccc(Cl)cc2)C1
13 | > 64 µg/mL | > 64 µg/mL | > 64 µg/mL | > 64 µg/mL | > 64 µg/mL | > 64 µg/mL | > 64 µg/mL | – | – | CN1CCc2c(c3cc(Cl)ccc3n2C(=O)Cc2ccccc2)C1
14 | > 64 µg/mL | 64 µg/mL (≈ 188 µM) | 32 µg/mL (≈ 93.9 µM) | 32 µg/mL (≈ 93.9 µM) | > 64 µg/mL | > 64 µg/mL | 32 µg/mL (≈ 93.9 µM) | – | – | CN1CCc2c(c3cc(Cl)ccc3n2CC(O)c2ccccc2)C1 (configuration not stated)
15 | 4 µg/mL (≈ 11.1 µM) | 64 µg/mL (≈ 178 µM) | 8 µg/mL (≈ 22.2 µM) | – | – | 2 µg/mL (≈ 5.55 µM) | 1 µg/mL (≈ 2.77 µM) | 16 µg/mL (≈ 44.4 µM) | 4 µg/mL (≈ 11.1 µM) | Fc1ccc2c(c1)c1c(n2CCCOc2c(F)cccc2F)CCNC1
16 | 16 µg/mL (≈ 40.1 µM) | 16 µg/mL (≈ 40.1 µM) | 16 µg/mL (≈ 40.1 µM) | – | – | 16 µg/mL (≈ 40.1 µM) | 16 µg/mL (≈ 40.1 µM) | 16 µg/mL (≈ 40.1 µM) | 4 µg/mL (≈ 10 µM) | Cc1ccc2c(c1)c1c(n2CCCOc2cccc(Br)c2)CCNC1
17 | 8 µg/mL (≈ 21 µM) | 4 µg/mL (≈ 10.5 µM) | 8 µg/mL (≈ 21 µM) | – | – | 4 µg/mL (≈ 10.5 µM) | 4 µg/mL (≈ 10.5 µM) | 4 µg/mL (≈ 10.5 µM) | 16 µg/mL (≈ 42 µM) | CC(C)(C)c1ccc(OCCCn2c3c(c4cc(F)ccc42)CNCC3)cc1
18 | 4 µg/mL (≈ 11.8 µM) | 16 µg/mL (≈ 47.3 µM) | 16 µg/mL (≈ 47.3 µM) | – | – | 4 µg/mL (≈ 11.8 µM) | 4 µg/mL (≈ 11.8 µM) | 64 µg/mL (≈ 189 µM) | 16 µg/mL (≈ 47.3 µM) | Cc1ccc2c(c1)c1c(n2CCCOc2ccc(F)cc2)CCNC1
19 | 64 µg/mL (≈ 159 µM) | 64 µg/mL (≈ 159 µM) | 16 µg/mL (≈ 39.7 µM) | 32 µg/mL (≈ 79.3 µM) | > 64 µg/mL | > 64 µg/mL | 32 µg/mL (≈ 79.3 µM) | – | – | CCN1CCc2c(c3cc(Cl)ccc3n2CCCOc2ccc(Cl)cc2)C1
20 | 8 µg/mL (≈ 19.1 µM) | 16 µg/mL (≈ 38.1 µM) | 4 µg/mL (≈ 9.53 µM) | – | – | 16 µg/mL (≈ 38.1 µM) | 16 µg/mL (≈ 38.1 µM) | 16 µg/mL (≈ 38.1 µM) | 4 µg/mL (≈ 9.53 µM) | Clc1ccc2c(c1)c1c(n2CCCOc2cccc(Br)c2)CCNC1
21 | 32 µg/mL (≈ 82.2 µM) | 32 µg/mL (≈ 82.2 µM) | 16 µg/mL (≈ 41.1 µM) | 32 µg/mL (≈ 82.2 µM) | > 64 µg/mL | > 64 µg/mL | 16 µg/mL (≈ 41.1 µM) | – | – | CN1CCc2c(c3cccc(Cl)c3n2CCCOc2ccc(Cl)cc2)C1

Reference: ChEMBL document CHEMBL3286225, “Novel carboline derivatives as potent antifungal lead compounds: design, synthesis, and biological evaluation” (ACS Med Chem Lett, 2014)
